target: T1, human kinase Mps-1 (Homo sapiens, UniProt P33981); experiment: Mps-1 kinase assay (TR-FRET); type: biochemical; settings: N-terminally GST-tagged human full length recombinant Mps-1; 10 μM ATP; 1 μM peptide substrate; 60 min at 22° C.
T1 construct: N-terminally GST-tagged human full length recombinant Mps-1 kinase; GST (N); purchased Invitrogen, Karslruhe, Germany PV4071
T1 sequence (P33981 1-857): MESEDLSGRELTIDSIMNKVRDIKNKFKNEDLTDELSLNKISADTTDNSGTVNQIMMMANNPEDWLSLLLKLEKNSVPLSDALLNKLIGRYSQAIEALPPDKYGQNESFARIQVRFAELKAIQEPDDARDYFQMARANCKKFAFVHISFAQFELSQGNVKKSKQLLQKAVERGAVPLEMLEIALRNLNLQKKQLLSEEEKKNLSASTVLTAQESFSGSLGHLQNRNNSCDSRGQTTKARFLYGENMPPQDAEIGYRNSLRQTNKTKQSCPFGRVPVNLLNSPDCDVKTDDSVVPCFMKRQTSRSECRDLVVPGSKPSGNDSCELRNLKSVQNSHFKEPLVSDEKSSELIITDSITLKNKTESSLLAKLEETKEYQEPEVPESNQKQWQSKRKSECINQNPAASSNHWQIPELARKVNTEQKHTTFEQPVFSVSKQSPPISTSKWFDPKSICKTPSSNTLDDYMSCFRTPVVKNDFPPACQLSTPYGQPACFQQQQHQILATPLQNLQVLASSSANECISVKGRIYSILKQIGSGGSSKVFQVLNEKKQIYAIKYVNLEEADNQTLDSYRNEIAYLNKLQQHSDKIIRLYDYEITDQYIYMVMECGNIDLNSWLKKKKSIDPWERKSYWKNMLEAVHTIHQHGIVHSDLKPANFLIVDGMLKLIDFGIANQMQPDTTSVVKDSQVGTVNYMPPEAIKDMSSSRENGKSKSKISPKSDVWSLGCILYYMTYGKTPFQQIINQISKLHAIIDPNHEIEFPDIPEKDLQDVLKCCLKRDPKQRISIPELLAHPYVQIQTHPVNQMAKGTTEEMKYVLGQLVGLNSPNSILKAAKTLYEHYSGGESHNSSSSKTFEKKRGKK
Description: The human kinase Mps-1 phosphorylates a biotinylated substrate peptide. Detection of the phosphorylated product is achieved by time-resolved fluorescence resonance energy transfer (TR-FRET) from Europium-labelled anti-phospho-Serine/Threonine antibody as donor to streptavidin labelled with cross-linked allophycocyanin (SA-XLent) as acceptor. Compounds are tested for their inhibition of the kinase activity.
N-terminally GST-tagged human full length recombinant Mps-1 kinase (purchased from Invitrogen, Karslruhe, Germany, cat. no PV4071) was used. As substrate for the kinase reaction a biotinylated peptide of the amino-acid sequence […] (C-terminus in amide form, purchased from Biosynthan GmbH, Berlin) was used.
The concentration of Mps-1 in the assay was adjusted to the activity of the enzyme lot and was chosen appropriate to have the assay in the linear range, typical enzyme concentrations were in the range of about 1 nM (final conc. in the 5 μl assay volume).
The resulting mixture was incubated 1 h at 22° C. to allow the binding of the phosphorylated peptide to the anti-phospho(Ser/Thr)-Europium-antibody. Subsequently the amount of phosphorylated substrate was evaluated by measurement of the resonance energy transfer from the Europium-labelled anti-phospho(Ser/Thr) antibody to the Streptavidin-XLent.

First: COCCNc1cc(Oc2cc(F)ccc2C)cn2c(-c3ccc(C(=O)NC4CC4)c(C)c3)cnc12 [Example 172]
Second: Cc1ccc(F)cc1Oc1cc(NCC(F)F)c2ncc(-c3ccc(C(=O)NC4CC4)c(C)c3)n2c1 [Example 164, N-cyclopropyl-4-{8-[(2,2-difluoroethyl)amino]-6-(5-fluoro-2-methylphenoxy)imidazo[1,2-a]pyridin-3-yl}-2-methylbenzamide]
The IC50 of the first is 5.6-fold higher: 77.8 nM for the first, 13.8 nM for the second.

Going from Cc1cc(-c2cnc3c(NCC(F)F)cc(Oc4cc(F)ccc4F)cn23)ccc1C(=O)NC1CC1 [Example 165, N-cyclopropyl-4-{8-[(2,2-difluoroethyl)amino]-6-(2,5-difluorophenoxy)imidazo[1,2-a]pyridin-3-yl}-2-methylbenzamide] to CCNC(=O)c1ccc(-c2cnc3c(NCCC(F)(F)F)cc(-c4ccccc4O)cn23)cc1C [Example 134, N-ethyl-4-{6-(2-hydroxyphenyl)-8-[(3,3,3-trifluoropropyl)amino]imidazo[1,2-a]pyridin-3-yl}-2-methylbenzamide], the IC50 falls from 48.3 nM to 13.7 nM (3.5-fold). The second is the more potent here.

Compared with COc1ccc(Oc2cc(NCCC(F)(F)F)c3ncc(-c4ccc(C(=O)NC5CC5)c(C)c4)n3c2)c(F)c1 [Example 69, N-cyclopropyl-4-{6-(2-fluoro-4-methoxyphenoxy)-8-[(3,3,3-trifluoropropyl)amino]imidazo[1,2-a]pyridin-3-yl}-2-methylbenzamide], C=Cc1cc(NCCC(F)(F)F)c2ncc(-c3ccc(C(=O)NC4(C)CC4)c(C)c3)n2c1 [Example 95, 2-Methyl-N-(1-methylcyclopropyl)-4-{8-[(3,3,3-trifluoropropyl)amino]-6-vinylimidazo[1,2-a]pyridin-3-yl}benzamide] is 140-fold higher in IC50: 1 nM for the first, 140 nM for the second.

Compared with C/C=C/c1cc(NCCC(F)(F)F)c2ncc(-c3ccc(C(=O)NC4(C#N)CC4)c(C)c3)n2c1 [Example 115, N-(1-cyanocyclopropyl)-2-methyl-4-{6-[(1E)-prop-1-en-1-yl]-8-[(3,3,3-trifluoropropyl)amino]imidazo[1,2-a]pyridin-3-yl}benzamide], Cc1cc(-c2cnc3c(NCCC(F)(F)F)cc(-c4ccc(C(=O)NC5(C#N)CC5)c(C)c4)cn23)ccc1C(=O)NC1CC1 [Example 150, 4-(6-{4-[(1-cyanocyclopropyl)carbamoyl]-3-methylphenyl}-8-[(3,3,3-trifluoropropyl)amino]imidazo[1,2-a]pyridin-3-yl)-N-cyclopropyl-2-methylbenzamide] is 74-fold lower in IC50: 59.4 nM for the first, 0.8 nM for the second. The second is the more potent here.

Going from CCNC(=O)c1ccc(-c2cnc3c(NCCC(F)(F)F)cc(Oc4cccc(O)c4)cn23)cc1C [Example 138, N-ethyl-4-{6-(3-hydroxyphenoxy)-8-[(3,3,3-trifluoropropyl)amino]imidazo[1,2-a]pyridin-3-yl}-2-methylbenzamide] to CNC(=O)c1ccc(-c2cnc3c(NCCC(F)(F)F)cc(-c4ccc(C(=O)N[C@H]5C[C@@H]5F)c(C)c4)cn23)cc1C (relative stereo) [Example 154, 4-{6-(4-{[rel-(1S,2S)-2-fluorocyclopropyl]carbamoyl}-3-methylphenyl)-8-[(3,3,3-trifluoropropyl)amino]imidazo[1,2-a]pyridin-3-yl}-N,2-dimethylbenzamide], the IC50 rises from 1.3 nM to 12.7 nM (9.8-fold).

Compared with “tert-butyl {3-[4-(cyclopropylcarbamoyl)-3-methylphenyl]-6-(2-hydroxybenzoyl)imidazo[1,2-a]pyridin-8-yl}(2,2-difluoroethyl)carbamate [Example 168]”, CCc1cc(NCCC(F)(F)F)c2ncc(-c3ccc(C(=O)NC4(C)CC4)c(C)c3)n2c1 [Example 102, 4-{6-Ethyl-8-[(3,3,3-trifluoropropyl)amino]imidazo[1,2-a]pyridin-3-yl}-2-methyl-N-(1-methylcyclopropyl)benzamide] is 2.1-fold lower in IC50: 279 nM for the first, 131 nM for the second.

First: C=Cc1cc(NCCC(F)(F)F)c2ncc(-c3ccc(C(=O)N[C@H]4C[C@@H]4F)c(C)c3)n2c1 (relative stereo) [Example 97, N-[rel-(1S,2S)-2-fluorocyclopropyl]-2-methyl-4-{8-[(3,3,3-trifluoropropyl)amino]-6-vinylimidazo[1,2-a]pyridin-3-yl}benzamide]
Second: Cc1cc(-c2cnc3c(NCCC(F)(F)F)cc(Oc4cccc(F)c4)cn23)ccc1C(=O)NC1CC1 [Example 6-1, N-cyclopropyl-4-{6-(3-fluorophenoxy)-8-[(3,3,3-trifluoropropyl)amino]imidazo[1,2-a]pyridin-3-yl}-2-methylbenzamide]
The IC50 of the first is 160-fold higher: 47.4 nM for the first, 0.3 nM for the second.

Going from Cc1cc(-c2cnc3c(NCCC(F)(F)F)cc(Oc4cccc(F)c4)cn23)ccc1C(=O)N[C@@H]1C[C@H]1C (relative stereo) [Example 48, Rel-4-{6-(3-fluorophenoxy)-8-[(3,3,3-trifluoropropyl)amino]imidazo[1,2-a]pyridin-3-yl}-2-methyl-N-[(1R,2R)-2-methylcyclopropyl]benzamide] to Cc1cc(-c2cc(NCCC(F)(F)F)c3ncc(-c4ccc(C(=O)NC5CC5)c(C)c4)n3c2)ccc1C(=O)NC1CC1 [Example 32, 4,4′-{8-[(3,3,3-trifluoropropyl)amino]imidazo[1,2-a]pyridine-3,6-diyl}bis(N-cyclopropyl-2-methylbenzamide)], the IC50 falls from 2.1 nM to 0.9 nM (2.3-fold). The second is the more potent here.

Compared with Cc1cc(F)cc(Sc2cc(NCCC(F)(F)F)c3ncc(-c4ccc(C(=O)NC5CC5)c(C)c4)n3c2)c1 [Example 3-1, N-cyclopropyl-4-{6-[(3-fluoro-5-methylphenyl)sulfanyl]-8-[(3,3,3-trifluoropropyl)amino]imidazo[1,2-a]pyridin-3-yl}-2-methylbenzamide], “N-cyclopropyl-4-{8-[(2,2-difluoroethyl)amino]-6-(2,5-difluorophenoxy)imidazo[1,2-a]pyridin-3-yl}-2-methylbenzamide [Example 166]” is 7.7-fold higher in IC50: 0.6 nM for the first, 4.6 nM for the second.

Compared with Cc1cc(-c2cnc3c(NCCC(F)(F)F)cc(C(C)O)cn23)ccc1C(=O)NC1CC1 (racemic) [Example 143, N-cyclopropyl-4-{6-[(1RS)-1-hydroxyethyl]-8-[(3,3,3-trifluoropropyl)amino]imidazo[1,2-a]pyridin-3-yl}-2-methylbenzamide], Cc1cc(-c2cnc3c(NCCC(F)(F)F)cc(Oc4cccc(F)c4)cn23)ccc1C(=O)NC1(C)CC1 [Example 11, 4-{6-(3-Fluorophenoxy)-8-[(3,3,3-trifluoropropyl)amino]imidazo[1,2-a]pyridin-3-yl}-2-methyl-N-(1-methylcyclopropyl)benzamide] is 8.7-fold lower in IC50: 33.2 nM for the first, 3.8 nM for the second.

Cc1cc(-c2cnc3c(NCCC(F)(F)F)cc(-c4ccncc4)cn23)ccc1C(=O)NC1(C)CC1 [Example 90] and Cc1cc(-c2cnc3c(NCCC(F)(F)F)cc(Oc4ccc(OCc5ccccc5)cc4)cn23)ccc1C(=O)NC1CC1 [Example 109, 4-{6-[4-(benzyloxy)phenoxy]-8-[(3,3,3-trifluoropropyl)amino]imidazo[1,2-a]pyridin-3-yl}-N-cyclopropyl-2-methylbenzamide] are within 1.5-fold of each other in IC50: 15.9 nM for the first, 17.8 nM for the second.

CNC(=O)c1ccc(-c2cnc3c(NCCC(F)(F)F)cc(Oc4ccccc4)cn23)cc1C [Example 59, N,2-dimethyl-4-{6-phenoxy-8-[(3,3,3-trifluoropropyl)amino]imidazo[1,2-a]pyridin-3-yl}benzamide] and CNC(=O)c1ccc(-c2cnc3c(NCCC(F)(F)F)cc(Oc4cccc(O)c4)cn23)cc1C [Example 139, 4-{6-(3-Hydroxyphenoxy)-8-[(3,3,3-trifluoropropyl)amino]imidazo[1,2-a]pyridin-3-yl}-N,2-dimethylbenzamide] are within 1.5-fold of each other in IC50: 1.5 nM for the first, 1.1 nM for the second.

With Cc1cc(-c2cnc3c(NCCC(F)(F)F)cc(-c4ccc(C(=O)NC5(CO)CC5)c(C)c4)cn23)ccc1C(=O)NC1CC1 [Example 151, 4-{3-[4-(cyclopropylcarbamoyl)-3-methylphenyl]-8-[(3,3,3-trifluoropropyl)amino]imidazo[1,2-a]pyridin-6-yl}-N-[1-(hydroxymethyl)cyclopropyl]-2-methylbenzamide] the IC50 was 2.6 nM.

Reference: patent publication US20140255392A1 (BAYER INTELLECTUAL PROPERTY GMBH, priority 2011, published 2014)
